Reference: ChEMBL document CHEMBL3351842, “Synthesis and biological characterization of new aryloxyindole-4,9-diones as potent trypanosomicidal agents” (Bioorg Med Chem Lett, 2014)
pIC50: −log10 of the molar value.

Tests used:
Trypanosoma cruzi [1] = assay: Trypanocidal activity against Trypanosoma cruzi Y epimastigotes […] assessed as growth inhibition of parasite measured on day 5; format: functional, organism-based; details: 120 h
J774 = assay: Cytotoxicity against mouse J774 cells assessed as cell viability after 48 hrs by MTT assay; format: cell-based; details: J774, 48 h
[2] = Selectivity index, ratio of IC50 for mouse J774A cells to IC50 for Trypanosoma cruzi Y epimastigotes; format: toxicity, cell-based; details: J774A cells versus Trypanosoma cruzi Y epimastigotes, read-out: Ratio IC50
Trypanosoma cruzi [3] = assay: Trypanocidal activity against Trypanosoma cruzi Y epimastigotes […] assessed as growth inhibition of parasite at 10 uM measured on day 5; format: functional; details: 120 h, read-out: GI
Trypanosoma cruzi [4] = assay: microbe, parasite or virus in culture; details: Y, J774, in Mus musculus, 120 h, read-out: GI
Description: Trypanocidal activity against Trypanosoma cruzi Y epimastigotes infected in mouse J774 cells assessed as growth inhibition of parasite at 5 uM measured on day 5

Row | SMILES | pIC50 (Trypanosoma cruzi [1]) | pIC50 (J774) | selectivity ratio [2] | inhibition of growth at 10 µM (Trypanosoma cruzi [3]) [%] | inhibition of growth at 5 µM (Trypanosoma cruzi [4]) [%]
1 | O=C1C=C(Oc2ccccc2)C(=O)c2ccccc21 | 7.30 | 4.90 | 250 | 87.2 | 
2 | CCOC(=O)c1cc2c(OC)cc(Br)c(OC)c2[nH]1 |  |  |  | 26.9 | 
3 | CCOC(=O)c1cc2c(OC)cc(Br)c(OC)c2n1CC |  |  |  | 2.9 | 
4 | CCOC(=O)c1cc2c(n1CC)C(=O)C(Br)=CC2=O | 6.28 |  |  | 97.1 | 
5 | CCOC(=O)c1cc2c(n1CC)C(=O)C(Oc1ccccc1)=CC2=O | 6.66 | 4.66 | 100 | 84.7 | 
6 | CCOC(=O)c1cc2c(n1CC)C(=O)C(Oc1ccc(C)cc1)=CC2=O | 7.70 |  |  | 92.1 | 
7 | CCOC(=O)c1cc2c(n1CC)C(=O)C(Oc1ccccc1C)=CC2=O | 6.85 | 4.90 | 89.3 | 100 | 
8 | CCOC(=O)c1cc2c(n1CC)C(=O)C(Oc1ccc(OC)cc1)=CC2=O | 7.70 | 4.90 | 625 | 90.5 | 
9 | CCOC(=O)c1cc2c(n1CC)C(=O)C(Oc1ccc(Cl)cc1)=CC2=O | 6.89 |  |  | 94.6 | 
10 | CC1CS(=O)(=O)CCN1/N=C/c1ccc([N+](=O)[O-])o1 (configuration not stated) [NIFURTIMOX] | 5.15 |  | 40 |  | 49.9
